From US20190352288A1, “MATRIX METALLOPROTEINASE (MMP) INHIBITORS AND METHODS OF USE THEREOF” (Foresee Pharmaceuticals Co., Ltd., priority 2018, published 2019)
Entries after “also recorded” stand apart in the source; their conditions may differ.

Legend:
recombinant human MMP-8 = recombinant human MMP-8 (Homo sapiens, UniProt P22894); test: MMP selectivity assay, MMP-8; assay type: biochemical; conditions: Table 2 selectivity profile
Protocol: (§1) The inhibitory effect of compounds on the rate of cleaving fluorogenic MMP substrate (Enzo, BML-P128) by recombinant human MMP-12 catalytic domain (Enzo, BML-SE138) was carried out by methods known in the art. Briefly, to each well of a 96-well black opaque plate, all the reagents were sequentially added by pipetting, and the final reaction contained 4 nM of recombinant human MMP-12 catalytic domain, 4 μM of fluorogenic MMP substrate, and various concentrations (0.15 nM to 10,000 nM) of tested compound dilutions in HEPES buffer (pH 7.5) containing 10 mM of CaCl2), 0.01% Brij® 35 (polyoxyethylene (23) lauryl ether), and 0.1 mg/ml of BSA.
(§2) The enzyme and compounds were pre-incubated on a shaker to mix in wells. After an hour of mixing, fluorogenic substrate was added to each well. Reaction without enzyme was used as a blank control in the plate. The plate was then fed into a plate reader to measure fluorescence intensity at Excitation/Emission wavelengths of 340 nm/440 nm every 10 mins for at least 1 hour at 37° C. The IC50 of each compound in MMP-12 inhibition was determined by using a readout obtained at time point 30 minutes.
(§3) The MMP selectivity assay was performed by using other recombinant human MMPs, including MMP-1, MMP-2, MMP-3, MMP-7, MMP-8, MMP-9, MMP-10, MMP-13, and MMP-14. The IC50 of the compounds for the other recombinant human MMPs was determined as described above in Example 1, and are shown in Table 2.

recombinant human MMP-10 = recombinant human MMP-10 (Homo sapiens, UniProt P09238); test: MMP selectivity assay, MMP-10; assay type: biochemical; conditions: Table 2 selectivity profile
Chain of recombinant human MMP-10 (P09238 99-476): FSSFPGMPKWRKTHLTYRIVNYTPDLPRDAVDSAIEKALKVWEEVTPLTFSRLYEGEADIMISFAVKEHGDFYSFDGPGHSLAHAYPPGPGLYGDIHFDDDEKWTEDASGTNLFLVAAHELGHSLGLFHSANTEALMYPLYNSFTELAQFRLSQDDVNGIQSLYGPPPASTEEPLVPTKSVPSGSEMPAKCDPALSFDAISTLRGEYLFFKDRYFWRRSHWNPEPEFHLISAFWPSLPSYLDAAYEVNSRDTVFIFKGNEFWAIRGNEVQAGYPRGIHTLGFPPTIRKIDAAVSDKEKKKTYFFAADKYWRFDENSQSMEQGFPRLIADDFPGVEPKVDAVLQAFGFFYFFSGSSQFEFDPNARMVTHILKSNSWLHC
Protocol: as §1, §2, §3

recombinant human MMP-14 = recombinant human MMP-14 (Homo sapiens, UniProt P50281); test: MMP selectivity assay, MMP-14; assay type: biochemical; conditions: Table 2 selectivity profile
Protocol: as §1, §2, §3

[1] = test system: SD rat kidney fibrosis model by unilateral ureteral occlusion (UUO); test: Efficacy study on SD rat kidney fibrosis model by unilateral ureteral occlusion (UUO); assay type: in vivo, Sprague Dawley (SD) rats
Protocol: This study was to evaluate the therapeutic efficacy of MMP-12 inhibitor, PC-16 on a renal fibrosis model by unilateral ureteral occlusion (UUO). Male Sprague Dawley (SD) rats (180-220 g, n=71) were used in this study. Animals were randomly divided into 4 groups: vehicle group (group-1, n=8), PC-16 2 mg/kg/day group (group-2, n=9), PC-16 6 mg/kg/day group (group-3, n=10), PC-16 20 mg/kg/day group (group-4, n=9). Animals were anesthetized with 2.5% isoflurane inhelation. The left ureter was ligated to create a unilateral ureteral occlusion (UUO) model to induce renal fibrosis. The test article, PC-16 was administrated twice a day via oral delivery after modeling for 14 days. Peripheral blood serum was prepared at pre-modeling and day-15 (one day after last dosing). All animals were euthanized and processed for left kidney pathology studies.
Animals: Gender: Male, SD rats, 180-220 g, total 71. Certificate: 11400700272659, Beijing Vital River Laboratory Animal Technology Co., Ltd., China. Animal holding: Animals were maintained in a temperature-controlled environment with a 12 hours light/12 hours dark cycle and free access to food and water. Experimental procedures were performed according to IACUC guidelines in the KCI (SuZhou) Biotech Inc. (KCI) animal research facility. Model creation: Total […] male SD rats were used in this study. After anesthesia with 2.5% isoflurane inhalation the animal abdomen was opened surgically. The left ureter was exposed and ligated close to the bladder to create the UUO model. After confirming no bleeding, the abdomen wall was closed in layers. The animals were maintained under temperature controlled pad (37° C.) for the recovery from anesthesia, and then were transferred to holding cages with regular food and water.
Experiment grouping: UUO modeling animals were divided into 7 groups randomizedly as vehicle (group-1, n=8), PC-16 2 mg/kg/day (group-5, n=9), PC-16 6 mg/kg/day (group-6, n=10), PC-16 20 mg/kg/day (group-7, n=9) (Table 4.1). Dosing regimen: All test articles were designed as an oral administration via a gastric perfusion. Test articles were designed to be delivered twice a day starting on the same day of modeling for 14 days (Table 4.1). Endpoints: 1) Blood collection: Peripheral blood was collected from all animals in each group and prepared for serum at pre-modeling and day-15 (one day after last dosing), stored at −80° C. All animals were euthanized according to KCI SOP. After confirming animal death without breath and heart bite the left kidneys were perfused with cold PBS followed by 10% neutral formalin and collected for further pathology study. 2) Detection of serum BUN and creatinine: The serum BUN and creatinine level were detected with Hitachi 7060 automatic biochemical analyzer and related test kits. 3) Kidney pathology examination: 3a) Kidney H&E staining and analysis: Following KCI's pathologic SOP all left kidneys were fixed in 10% formalin for at least 24 h at room temperature. After fixation, the kidney was cut longitudinally to get the largest surface and dehydrated in graded ethanol, cleared in xylene, and embedded in paraffin. Thin sections (3-μm) were mounted on glass slides, dewaxed, rehydrated to distilled water, and stained with hematoxylin and eosin (H&E). All stained slides were scanned with NanoZoomer Digital Pathology (S210, Hamamaci, Japan) scanner. Semi quantitative evaluation of the degree of tubular epithelial flattening and dilatation were graded from 0-5 according to the percentage of tubular involvement: score 0=no damage; score 1=1-10% damage; score 2=10-25% damage; score 3=25-50% damage; score 4=50-75% damage; score 5=75-100% damage. Semi quantitative evaluation of the tubular necrosis is graded from 0 to 3 according to the percentage of tubular involvement: score 0=no necrosis; score 1=<25% necrosis; score 2=25-50% necrosis; score 3=>50% necrosis. The average of tubular flattening and dilatation and necrosis as the total tubular damage was presented. […]

[2] = UUO rats, 20 mg/kg/day (p<0.05)

Chain of recombinant human MMP-8 (P22894 101-467): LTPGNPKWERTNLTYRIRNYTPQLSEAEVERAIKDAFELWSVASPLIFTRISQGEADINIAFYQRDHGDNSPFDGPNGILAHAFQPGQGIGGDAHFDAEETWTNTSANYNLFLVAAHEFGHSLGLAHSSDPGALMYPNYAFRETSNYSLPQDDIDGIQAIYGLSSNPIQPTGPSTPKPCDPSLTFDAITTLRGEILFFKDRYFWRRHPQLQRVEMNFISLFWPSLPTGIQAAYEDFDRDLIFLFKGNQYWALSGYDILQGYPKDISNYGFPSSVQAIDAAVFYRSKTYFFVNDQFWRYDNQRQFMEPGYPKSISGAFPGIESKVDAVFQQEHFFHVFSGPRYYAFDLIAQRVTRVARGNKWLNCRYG

SMILES: Cc1cc(COc2ccc(Sc3ccncc3C3NC(=O)NC3=O)cc2)ccn1 (centres unmarked) [PC-16]
- IC50 (recombinant human MMP-8): 1 to 10 µM
- IC50 (recombinant human MMP-10): 1 to 10 µM
- IC50 (recombinant human MMP-14): 1 to 10 µM
- collagen-IV deposition in cortex area of left kidney (IHC) ([1]; UUO rats, 6 mg/kg/day (P<0.05)): significant reduction in collagen-IV deposition
- interstitial fibrosis score in cortex ([1]; UUO rats, 20 mg/kg/day (p<0.001)): significant reduction in the fibrosis score
- collagen-I deposition in cortex area of left kidney (IHC) [1, 2]: significant reduction in collagen-I deposition
- collagen-IV deposition in cortex area of left kidney (IHC) [1, 2]: significant reduction in collagen-IV deposition
- serum blood urea nitrogen (BUN) elevation vs vehicle/model group ([1]; UUO rats, 20 mg/kg/day oral bid 14 days, day-15, 20 mg/kg/day): slightly limit the blood urea nitrogen (BUN) elevation; also recorded: did not show a statistically significant difference
- left kidney tubular damage (renal tubular damage score) ([1]; UUO rats, 2, 6, 20 mg/kg/day oral bid 14 days, 20 more effective than 2 mg/kg/day (p<0.01)): clear dose dependent effect
- interstitial inflammation in cortex (semi quantitative score) ([1]; UUO rats, 2, 6, 20 mg/kg/day oral bid 14 days, dose dependent): significant reduction
- interstitial fibrosis score in cortex ([1]; UUO rats, all dose groups (2, 6, 20 mg/kg/day), dose dependent): significant reduction in the fibrosis score
